PubChem BioAssay (NCI)
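These data come from cells grown in 96-well plates and exposed to compound for 48 hours at five concentrations. GI50 = concentration required for 50% inhibition of growth. TGI marks complete inhibition of growth.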

Assays:
Assay in all cases: NCI-60 cell line screen, 48 h
KM12 colon = system: KM12 colon
SF-539 CNS = system: SF-539 CNS
SNB-19 CNS = system: SNB-19 CNS
K-562 leukemia = system: K-562 leukemia
SF-295 CNS = system: SF-295 CNS
MDA-MB-435 = system: MDA-MB-435
BT-549 breast = system: BT-549 breast
OVCAR-5 ovarian = system: OVCAR-5 ovarian
MCF7 breast = system: MCF7 breast
SN12C renal = system: SN12C renal

Row | Structure (SMILES) | GI50 (KM12 colon) [µM] | TGI (KM12 colon) [µM] | GI50 (SF-539 CNS) [µM] | TGI (SF-539 CNS) [µM] | GI50 (SNB-19 CNS) [µM] | TGI (SNB-19 CNS) [µM] | GI50 (K-562 leukemia) [µM] | TGI (K-562 leukemia) [µM] | GI50 (SF-295 CNS) [µM] | TGI (SF-295 CNS) [µM] | GI50 (MDA-MB-435) [µM] | TGI (MDA-MB-435) [µM] | GI50 (BT-549 breast) [µM] | TGI (BT-549 breast) [µM] | GI50 (OVCAR-5 ovarian) [µM] | TGI (OVCAR-5 ovarian) [µM] | GI50 (MCF7 breast) [µM] | TGI (MCF7 breast) [µM] | GI50 (SN12C renal) [µM] | TGI (SN12C renal) [µM]
1 | COC1=C(Br)C(=O)C2=C(C1=O)C1C3=C(C(=O)C=CC3=O)C2c2ccccc21 (stereo not given) | 12.4 | 32.1 | 2.92 | 8.79 | 16.6 | 43.3 | 4.66 | > 100 | 24.1 | 48.9 | 18.2 | 36.3 | 16.8 | 38.3 | 22.3 | 98.6 | 22.7 | > 100 | 11 | 32.2
2 | Cn1c(=O)c(Oc2ccccc2)cc2cnc(NC3CCOCC3)nc21 | > 25 | > 25 | > 25 | > 25 | > 25 | > 25 | > 25 | > 25 | > 25 | > 25 | > 25 | > 25 | > 25 | > 25 | > 25 | > 25 | > 25 | > 25 | > 25 | > 25
3 | NC1=Nc2cc(OCCCN3Cc4ccccc4C3)c(OCC3CC3)cc2C12CCCC2 | 4.04 | 15.5 | 1.7 | 3.17 | 4.53 | 16.4 | 0.74 | 4.08 | 1.64 | 3.42 | 1.8 | 3.66 | 2.26 | 7.84 | 5.99 | 19.1 | 1.8 | 4.03 | 3.85 | 15.2
4 | N#C/C(=C\c1ccc(Br)cc1)n1nnc2ccccc21 | 0.512 | 2.33 | 0.513 | 1.86 | 0.763 | 2.41 | 0.235 | > 19.7 | 1.18 | 8.9 | 0.191 | 0.438 | 0.566 | 4.85 | 1.13 | 3.26 | 0.303 | 6.2 | 0.525 | 3.48
5 | COc1cc(OC)c(C(=O)/C=C/c2cccc(OC(C)=O)c2)cc1CC=C(C)C | 7.16 | 14.8 | 8.62 | 16.2 | 9.2 | 17.2 | 8.56 | > 50 | 11.9 | > 50 | 5.67 | 31.1 | 6.28 | 36.6 | 11.9 | 22.5 | 2.54 | 44 | 9.87 | > 50
6 | NC1CCC(N[C@@H]2C[C@H]2c2ccccc2)CC1 (stereo not given in full) | > 100 | > 100 | 15.3 | 52 | > 100 | > 100 | 29.9 | > 100 | > 100 | > 100 | 48.4 | > 100 | > 100 | > 100 | > 100 | > 100 | > 100 | > 100 | > 100 | > 100
7 | COc1cc(/C=C2\C(=O)Nc3cccc(Cl)c32)cc(OC)c1OC | > 100 | > 100 | > 100 | > 100 | 60.1 | > 100 | 29.2 | > 100 | > 100 | > 100 | > 100 | > 100 | > 100 | > 100 | 46.4 | > 100 | > 100 | > 100 | > 100 | > 100
